Data from ChEMBL document CHEMBL4270672, “Synthesis and Biological Evaluation of Fused Tricyclic Heterocycle Piperazine (Piperidine) Derivatives As Potential Multireceptor Atypical Antipsychotics” (J Med Chem, 2018).
The source made the active and inactive calls. The calls are words filed in the database; no cut-off is given here.

What was measured:
[1] = molecular target: T1, 5-hydroxytryptamine receptor 1A (Rattus norvegicus, UniProt P19327)
T1 sequence (P19327 whole entry): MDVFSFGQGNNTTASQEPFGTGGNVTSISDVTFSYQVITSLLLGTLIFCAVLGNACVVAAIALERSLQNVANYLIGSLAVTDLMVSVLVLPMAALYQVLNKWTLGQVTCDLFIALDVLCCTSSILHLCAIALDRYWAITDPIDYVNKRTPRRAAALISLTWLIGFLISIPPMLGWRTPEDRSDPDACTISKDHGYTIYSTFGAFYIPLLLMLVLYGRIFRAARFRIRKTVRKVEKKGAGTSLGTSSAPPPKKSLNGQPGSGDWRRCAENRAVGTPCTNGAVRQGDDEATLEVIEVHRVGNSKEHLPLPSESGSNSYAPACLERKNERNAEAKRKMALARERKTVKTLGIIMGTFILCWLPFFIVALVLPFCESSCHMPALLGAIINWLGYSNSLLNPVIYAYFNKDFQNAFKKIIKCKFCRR

Mus musculus [2] = species: Mus musculus; test: animal or person; conditions: Kunming, po
Description: Antipsychotic activity in po dosed Kunming mouse assessed as reduction in apomorphine-induced climbing pretreated for 30 mins followed by apomorphine injection measured at 10 to 30 mins post dose

[3] = AUC (0 to infinity) in Sprague-Dawley rat at 10 mg/kg, po by LC-MS/MS analysis; assay type: ADME, organism-based; parameters: dose 10 mg/kg, route oral, time infinity; conditions: in vivo
[4] = AUC (0 to t) in Sprague-Dawley rat at 1 mg/kg, iv by LC-MS/MS analysis; assay type: ADME, organism-based; conditions: in vivo
[5] = molecular target: Voltage-gated inwardly rectifying potassium channel KCNH2 (Homo sapiens, UniProt Q12809)
Chain of Voltage-gated inwardly rectifying potassium channel KCNH2 (Q12809 whole entry): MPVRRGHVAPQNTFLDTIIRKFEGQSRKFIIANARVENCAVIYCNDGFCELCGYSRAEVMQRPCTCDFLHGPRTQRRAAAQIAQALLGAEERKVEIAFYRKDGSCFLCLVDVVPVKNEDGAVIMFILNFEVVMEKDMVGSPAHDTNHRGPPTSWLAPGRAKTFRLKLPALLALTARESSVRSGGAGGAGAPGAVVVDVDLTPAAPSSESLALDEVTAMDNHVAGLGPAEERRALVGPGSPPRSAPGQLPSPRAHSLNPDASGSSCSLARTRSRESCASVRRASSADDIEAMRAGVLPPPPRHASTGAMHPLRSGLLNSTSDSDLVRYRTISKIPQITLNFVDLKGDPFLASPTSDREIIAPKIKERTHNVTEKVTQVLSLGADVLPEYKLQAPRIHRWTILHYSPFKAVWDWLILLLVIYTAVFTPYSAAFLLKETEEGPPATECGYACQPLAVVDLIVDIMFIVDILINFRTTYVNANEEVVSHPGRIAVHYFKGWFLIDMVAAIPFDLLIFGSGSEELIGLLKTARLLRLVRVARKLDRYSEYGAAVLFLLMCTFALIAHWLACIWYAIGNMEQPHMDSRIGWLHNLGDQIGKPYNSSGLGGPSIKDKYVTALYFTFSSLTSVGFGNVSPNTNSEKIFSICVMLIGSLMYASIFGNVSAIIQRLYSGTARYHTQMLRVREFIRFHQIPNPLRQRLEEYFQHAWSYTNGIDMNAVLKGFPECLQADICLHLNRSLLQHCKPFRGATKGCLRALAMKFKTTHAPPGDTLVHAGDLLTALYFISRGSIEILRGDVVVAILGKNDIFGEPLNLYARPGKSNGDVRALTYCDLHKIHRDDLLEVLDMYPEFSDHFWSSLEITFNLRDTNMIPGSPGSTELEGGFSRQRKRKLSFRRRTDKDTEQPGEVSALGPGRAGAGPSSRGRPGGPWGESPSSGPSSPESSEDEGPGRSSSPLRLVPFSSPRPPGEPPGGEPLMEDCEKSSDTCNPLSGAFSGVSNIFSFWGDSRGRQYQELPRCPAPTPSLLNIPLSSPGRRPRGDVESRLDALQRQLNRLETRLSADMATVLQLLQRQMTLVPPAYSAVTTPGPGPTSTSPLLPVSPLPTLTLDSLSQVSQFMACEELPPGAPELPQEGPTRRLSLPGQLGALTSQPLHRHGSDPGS
Description: Inhibition of human ERG expressed in HEK293 cells at -50 mV holding potential by patch clamp assay

[6] = molecular target: 5-hydroxytryptamine receptor 6 (Homo sapiens, UniProt P50406); test: biochemical
Chain of 5-hydroxytryptamine receptor 6 (P50406 whole entry): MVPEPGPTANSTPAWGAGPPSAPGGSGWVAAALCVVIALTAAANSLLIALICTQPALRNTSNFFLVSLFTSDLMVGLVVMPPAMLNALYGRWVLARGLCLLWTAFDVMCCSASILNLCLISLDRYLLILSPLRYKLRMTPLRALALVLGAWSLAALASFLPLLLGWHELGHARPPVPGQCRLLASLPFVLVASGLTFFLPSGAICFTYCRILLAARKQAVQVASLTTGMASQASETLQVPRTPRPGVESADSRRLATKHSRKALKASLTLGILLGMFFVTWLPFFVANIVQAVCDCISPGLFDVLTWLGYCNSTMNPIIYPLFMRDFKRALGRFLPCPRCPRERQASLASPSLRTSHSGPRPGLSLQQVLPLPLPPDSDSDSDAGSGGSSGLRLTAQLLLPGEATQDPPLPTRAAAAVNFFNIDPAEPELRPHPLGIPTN

Rattus norvegicus [7] = test: Cognitive enhancing effect in Sprague-Dawley rat assessed as effect on total exploration time for familiar objects in acquisition trial at 0.03 to 0.3 mg/kg, po administered 1 hr measured for 3 mins by novel object recognition test; assay type: functional, organism-based
[8] = molecular target: 5-hydroxytryptamine receptor 2A (Homo sapiens, UniProt P28223); test: Agonist activity at serotonin 5-HT2A receptor (unknown origin) expressed in HEK293 cells assessed as induction of calcium flux at 10 uM after 60 mins by calcium 4-dye based FLIPR assay relative to control; assay type: functional, cell-based
D(2) dopamine receptor [9] = molecular target: T2, D(2) dopamine receptor (Homo sapiens, UniProt P14416); test: Antagonist activity at dopamine D2 receptor long isoform (unknown origin) expressed in HEK293 cells assessed as inhibition of dopamine-induced calcium flux at 10 uM after 15 mins by calcium 4-dye based FLIPR assay relative to control; assay type: functional, cell-based
T2 sequence (P14416 whole entry, canonical isoform): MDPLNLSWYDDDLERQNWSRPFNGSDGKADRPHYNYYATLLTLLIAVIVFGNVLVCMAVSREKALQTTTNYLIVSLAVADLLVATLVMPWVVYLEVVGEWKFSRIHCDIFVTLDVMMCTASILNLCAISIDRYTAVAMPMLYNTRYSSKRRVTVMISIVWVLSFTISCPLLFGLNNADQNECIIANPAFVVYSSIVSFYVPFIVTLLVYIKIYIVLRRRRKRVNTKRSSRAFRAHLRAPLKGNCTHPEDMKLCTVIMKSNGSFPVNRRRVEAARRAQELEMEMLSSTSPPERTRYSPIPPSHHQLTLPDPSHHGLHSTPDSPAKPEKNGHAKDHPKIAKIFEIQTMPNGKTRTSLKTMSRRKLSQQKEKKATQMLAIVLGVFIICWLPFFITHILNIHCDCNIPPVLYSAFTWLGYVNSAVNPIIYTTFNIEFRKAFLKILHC

[10] = AUC (0 to t) in Sprague-Dawley rat at 10 mg/kg, po by LC-MS/MS analysis; assay type: ADME, organism-based; conditions: in vivo
D(3) dopamine receptor = D(3) dopamine receptor (Rattus norvegicus, UniProt P19020)
Chain of D(3) dopamine receptor (P19020 whole entry): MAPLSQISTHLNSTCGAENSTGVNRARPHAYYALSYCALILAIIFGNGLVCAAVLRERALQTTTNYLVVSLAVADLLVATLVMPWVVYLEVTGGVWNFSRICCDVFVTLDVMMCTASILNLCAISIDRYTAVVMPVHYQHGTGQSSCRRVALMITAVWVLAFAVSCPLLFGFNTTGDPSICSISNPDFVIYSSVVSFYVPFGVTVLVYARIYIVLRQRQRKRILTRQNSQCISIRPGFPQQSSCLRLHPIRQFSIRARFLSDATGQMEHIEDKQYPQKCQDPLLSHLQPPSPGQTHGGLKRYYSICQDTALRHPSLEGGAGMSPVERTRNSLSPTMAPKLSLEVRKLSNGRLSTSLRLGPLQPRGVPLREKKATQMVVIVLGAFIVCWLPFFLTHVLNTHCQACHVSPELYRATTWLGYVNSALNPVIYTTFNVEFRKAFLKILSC

Mus musculus [11] = test: Induction of weight gain in Kunming mouse at 0.6 to 5.4 mg/kg, po administered for 28 days measured every day during compound dosing; assay type: organism-based; conditions: in vivo, 672 h
D(2) dopamine receptor [12] = molecular target: T2, D(2) dopamine receptor; test: Agonist activity at dopamine D2 receptor long isoform (unknown origin) expressed in HEK293 cells assessed as induction of calcium flux at 10 uM after 60 min by calcium 4-dye based FLIPR assay relative to control; assay type: functional, cell-based
[13] = molecular target: Sigma non-opioid intracellular receptor 1 (Cavia porcellus, UniProt Q60492); test: Displacement of [3H]-(+)-pentazocine from sigma1 receptor in guinea pig brain membranes after 180 mins by liquid scintillation counting; assay type: cell membranes, Membrane
Chain of Sigma non-opioid intracellular receptor 1 (Q60492 whole entry): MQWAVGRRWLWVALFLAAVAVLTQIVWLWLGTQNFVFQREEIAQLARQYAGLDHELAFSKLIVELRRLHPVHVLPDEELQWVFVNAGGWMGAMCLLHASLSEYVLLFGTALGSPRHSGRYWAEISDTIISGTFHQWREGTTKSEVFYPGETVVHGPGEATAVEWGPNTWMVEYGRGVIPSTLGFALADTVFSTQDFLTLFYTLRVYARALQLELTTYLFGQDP

[14] = molecular target: 5-hydroxytryptamine receptor 7 (Rattus norvegicus, UniProt P32305); test: Displacement of [3H]-5-CT from 5-HT7 receptor in rat cerebral cortex homogenates after 30 mins by liquid scintillation counting
Chain of 5-hydroxytryptamine receptor 7 (P32305 whole entry): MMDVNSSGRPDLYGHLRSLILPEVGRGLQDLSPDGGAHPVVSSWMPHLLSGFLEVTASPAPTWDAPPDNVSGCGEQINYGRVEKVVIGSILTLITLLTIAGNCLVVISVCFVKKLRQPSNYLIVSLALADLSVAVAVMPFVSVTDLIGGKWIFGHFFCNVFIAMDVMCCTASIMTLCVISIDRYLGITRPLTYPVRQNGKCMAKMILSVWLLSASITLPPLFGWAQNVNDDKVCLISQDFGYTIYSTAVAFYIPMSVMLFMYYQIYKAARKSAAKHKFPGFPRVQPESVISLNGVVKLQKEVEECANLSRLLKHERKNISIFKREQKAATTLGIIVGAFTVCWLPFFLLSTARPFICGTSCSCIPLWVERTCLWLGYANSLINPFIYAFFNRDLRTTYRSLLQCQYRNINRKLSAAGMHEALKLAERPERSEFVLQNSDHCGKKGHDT

Mus musculus [15] = species: Mus musculus; test: animal or person; conditions: Kunming, po; remark: listed apart in the source
Description: Antipsychotic activity in po dosed Kunming mouse assessed as reduction in MK-801-induced hyperactivity pretreated for 60 mins followed by MK-801 challenge measured for 90 mins

[16] = Tmax in Sprague-Dawley rat at 10 mg/kg, po by LC-MS/MS analysis; assay type: ADME, organism-based; conditions: in vivo
[17] = molecular target: T3, 5-hydroxytryptamine receptor 2C (Rattus norvegicus, UniProt P08909)
T3 sequence (P08909 whole entry): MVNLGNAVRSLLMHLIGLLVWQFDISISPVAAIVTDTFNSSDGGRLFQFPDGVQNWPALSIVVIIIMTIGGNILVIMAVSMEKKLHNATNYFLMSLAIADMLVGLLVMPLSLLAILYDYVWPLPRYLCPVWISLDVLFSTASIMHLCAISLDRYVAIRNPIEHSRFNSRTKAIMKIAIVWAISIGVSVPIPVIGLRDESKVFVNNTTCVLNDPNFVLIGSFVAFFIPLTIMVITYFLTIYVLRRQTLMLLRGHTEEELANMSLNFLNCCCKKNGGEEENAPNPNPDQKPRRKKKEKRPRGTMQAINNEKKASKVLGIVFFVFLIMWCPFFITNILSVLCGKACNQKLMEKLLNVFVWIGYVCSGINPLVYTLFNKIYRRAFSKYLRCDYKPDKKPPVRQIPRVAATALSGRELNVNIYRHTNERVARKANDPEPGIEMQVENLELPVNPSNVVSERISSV

[18] = molecular target: 5-hydroxytryptamine receptor 1A (Homo sapiens) (UniProt P08908); test: Agonist activity at serotonin 5-HT1A receptor (unknown origin) expressed in HEK293 cells assessed as induction of calcium flux at 10 uM after 60 mins by calcium 4-dye based FLIPR assay relative to control; assay type: functional, cell-based
Chain of 5-hydroxytryptamine receptor 1A (Homo sapiens) (P08908 whole entry): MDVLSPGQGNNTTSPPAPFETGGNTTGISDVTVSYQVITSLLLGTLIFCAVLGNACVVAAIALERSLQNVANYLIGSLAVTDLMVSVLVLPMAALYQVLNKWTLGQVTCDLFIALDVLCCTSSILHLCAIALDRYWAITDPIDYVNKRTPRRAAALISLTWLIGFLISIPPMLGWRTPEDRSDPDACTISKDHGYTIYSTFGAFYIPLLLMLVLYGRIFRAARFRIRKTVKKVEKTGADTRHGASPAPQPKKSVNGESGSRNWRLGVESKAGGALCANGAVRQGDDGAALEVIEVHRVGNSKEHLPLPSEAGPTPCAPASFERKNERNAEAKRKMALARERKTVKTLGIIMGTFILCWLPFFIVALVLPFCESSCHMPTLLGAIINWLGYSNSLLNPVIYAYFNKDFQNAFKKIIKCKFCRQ

D(2) dopamine receptor [19] = molecular target: D(2) dopamine receptor (Rattus norvegicus, UniProt P61169)
Glutamate NMDA receptor = test: Displacement of [3H] glycine from NMDA receptor in rat hippocampal membrane homogenates after 30 mins by liquid scintillation counting; assay type: cell membranes
[20] = Cmax in Sprague-Dawley rat at 10 mg/kg, po by LC-MS/MS analysis; assay type: ADME, organism-based; parameters: dose 10 mg/kg, route oral; conditions: in vivo
[21] = Displacement of [3H]-DTG from sigma2 receptor in guinea pig brain membranes after 120 mins by liquid scintillation counting; assay type: cell membranes, Cavia porcellus, Membrane
[22] = Acute toxicity in po dosed Kunming mouse assessed as mortality measured after 24 hrs post dose; assay type: organism-based; conditions: in vivo
[23] = molecular target: Sodium-dependent serotonin transporter (Rattus norvegicus, UniProt P31652); test: Displacement of [3H]-paroxetine from SERT in rat cerebral cotex homogenates after 10 mins by liquid scintillation counting
Chain of Sodium-dependent serotonin transporter (P31652 whole entry): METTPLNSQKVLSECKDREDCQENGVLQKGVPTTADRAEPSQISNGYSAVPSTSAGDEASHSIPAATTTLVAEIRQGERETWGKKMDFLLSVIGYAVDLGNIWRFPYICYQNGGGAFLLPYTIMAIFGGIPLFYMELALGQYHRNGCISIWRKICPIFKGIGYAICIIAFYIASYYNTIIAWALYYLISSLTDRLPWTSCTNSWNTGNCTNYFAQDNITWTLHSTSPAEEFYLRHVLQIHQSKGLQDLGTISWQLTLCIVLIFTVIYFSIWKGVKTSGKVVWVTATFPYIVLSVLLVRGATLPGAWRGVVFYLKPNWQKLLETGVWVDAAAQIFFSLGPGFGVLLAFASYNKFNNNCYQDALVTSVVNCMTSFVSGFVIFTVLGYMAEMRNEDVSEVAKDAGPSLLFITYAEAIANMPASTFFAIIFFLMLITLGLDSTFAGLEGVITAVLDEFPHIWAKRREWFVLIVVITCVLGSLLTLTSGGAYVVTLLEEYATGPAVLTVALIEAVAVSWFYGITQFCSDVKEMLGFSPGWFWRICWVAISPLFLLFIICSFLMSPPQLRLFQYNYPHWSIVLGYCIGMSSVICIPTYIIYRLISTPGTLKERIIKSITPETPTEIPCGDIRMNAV

Rattus norvegicus [24] = test: Antipsychotic activity in po dosed Sprague-Dawley rat assessed as reduction in conditioned avoidance response measured at 90 mins post single dose; assay type: functional; conditions: 1.5 h
[25] = Half life in Sprague-Dawley rat at 10 mg/kg, po by LC-MS/MS analysis; assay type: ADME, organism-based; conditions: in vivo
D(1A) dopamine receptor = D(1A) dopamine receptor (Rattus norvegicus, UniProt P18901); test: Displacement of [3H]-SCH23390 from dopamine D1 receptor in rat strriatum homogenates after 20 mins by liquid scintillation counting
Chain of D(1A) dopamine receptor (P18901 whole entry): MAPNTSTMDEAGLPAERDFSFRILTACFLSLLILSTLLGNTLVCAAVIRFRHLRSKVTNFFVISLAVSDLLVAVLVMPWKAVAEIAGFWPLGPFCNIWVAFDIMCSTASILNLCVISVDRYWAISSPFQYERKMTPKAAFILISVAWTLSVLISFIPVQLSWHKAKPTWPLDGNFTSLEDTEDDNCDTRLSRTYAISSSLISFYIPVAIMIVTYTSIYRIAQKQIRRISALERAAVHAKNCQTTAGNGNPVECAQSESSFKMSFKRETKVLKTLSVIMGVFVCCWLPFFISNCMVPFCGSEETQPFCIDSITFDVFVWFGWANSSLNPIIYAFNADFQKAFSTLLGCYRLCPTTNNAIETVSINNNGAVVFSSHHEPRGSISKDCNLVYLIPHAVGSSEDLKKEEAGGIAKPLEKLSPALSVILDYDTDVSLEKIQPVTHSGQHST

[26] = Therapeutic index, ratio of ED50 for catalepsy in Kunming mouse to ED50 for MK-801-induced hyperactivity in Kunming mouse; assay type: toxicity, organism-based; conditions: in vivo, read-out: Ratio ED50

`O=C(CCCCN1CCC(c2noc3cc(F)ccc23)CC1)c1cc2c3c(c1)CCN3C(=O)CC2` showed a Ki [1] of 8.6 nM, an ED50 (Mus musculus [2]) of 0.61 mg/kg and an AUC(0-inf) [3] of 18500 ng·h/mL. It also gave an AUC(0-t) [4] of 3140 ng·h/mL, an IC50 [5] of 2910 nM and a Ki [6] of 5.55 nM. The Activity (Rattus norvegicus [7]) was “inactive”, the Activity [8] was 0.6% and the inhibition (D(2) dopamine receptor [9]) was 93.3%. For the same compound, the AUC(0-t) [10] was 18500 ng·h/mL, the Ki (D(3) dopamine receptor) was 1.66 nM and the Activity (Mus musculus [11]) was “Non-Toxic”. For the same compound, the Activity (D(2) dopamine receptor [12]) was 9.8%, the Ki [13] was > 1000 nM and the Ki [14] was 226 nM. The ED50 (Mus musculus [15]) was 0.26 mg/kg, the Tmax [16] was 1 h and the Ki [17] was 616 nM. For the same compound, the Activity [18] was 8.6%, the Ki (D(2) dopamine receptor [19]) was 2.9 nM and the Ki (Glutamate NMDA receptor) was > 1000 nM. The Cmax [20] was 3730 ng/mL, the Ki [21] was > 1000 nM and the LD50 at 24 h [22] was > 2000 mg/kg. The Ki [23] was > 1000 nM, the ED50 (Rattus norvegicus [24]) was 1.46 mg/kg and the half-life [25] was 2.02 h. For the same compound, the Ki (D(1A) dopamine receptor) was 76.9 nM and the selectivity ratio [26] was 302.
